Reference: patent US20260014278A1, “HYBRID PEPTIDE DENDRIMER SYSTEMS AND EXTRAHEPATIC DELIVERY” (NUNTIUS THERAPEUTICS LIMITED, priority 2022, published 2026)

Legend:
human THP-1 cells = assay: eGFP mRNA transfection of human THP-1 macrophages, flow cytometry; format: cell-based; settings: THP-1, FIG. 3
Method: THP-1 cells (a human leukaemia monocytic cell line) were sub-cultured in RPMI (with glutamax)+10% heat inactivated FBS (complete media) at 3E+5 cells/ml and passaged every 3-4 days. For macrophage polarisation 7.5E+6 cells were seeded in T75 flasks in a total of 20 ml complete media containing 5 ng/ml PMA (1:1000 of 5 ug/ml stock). The cells were transferred to the 37° C. incubator for overnight. After 24 hrs, THP-1 cells were washed with complete medium and a fresh flask complete medium (not containing PMA) was overlaid on the cells. After a further 72 hrs, the complete medium was exchanged for fresh complete media containing 20 ng/ml rhlL-4 (1:500 of 10 μg/ml stock). 24 hrs later the cells were harvested by firstly washing the cells with PBS followed by a 5 minute treatment at 37° C. with 5 mM EDTA (diluted in PBS). Cells were spun down at 300 g for 5 minutes and resuspended in a complete medium containing 20 ng/ml rhlL-4 at 2.4E+5 cells/mi. 500 ul of cells were seeded into each well on a 24-well plate and left overnight in the 37° C. incubator.
The medium overlaying the polarised THP-1 cells was aspirated and exchanged with 480 ul/well complete media containing 20 ng/ml rhlL-4. […]
Data were collected using a BD LSRFortessa I analyser running […] software (Beckton Dickinson). All collected data were analysed using FlowJo 10.0 software. […]

mouse macrophages = assay: eGFP mRNA transfection of mouse macrophages with or without mannose-dendrimer coat; format: cell-based
Method: J774.2 cells were subcultured in DMEM supplemented with 2 mM glutamax and 10% heat-inactivated FBS (complete media). Twice a week (at about 70-80% confluency; every 3-4 days), cells were scrapped and collected into Falcon tubes, and pelleted at 400 g for 5 minutes. The cells were resuspended in complete media, counted and seeded into 10 cm dishes at a density of 1.7-2.5E+4 cells/cm^2. For M2 polarisation, the cells were treated with complete media supplemented with 20 ng/ml recombinant murine IL-4 and 20 ng/ml recombinant murine IL-13 (activation media) over a 48 hr period. After 24 hrs in IL-4 and IL-13 containing medium, the cells scrapped and collected as described above. The cells were seeded into 24-well plates at a density of 1.2E+5 cells/well in 0.5mls/well complete media containing 20 ng/ml IL-4 and IL-13.
The media overlaying the polarised J774.2 cells was aspirated and exchanged with 480 ul/well activation media. 120 ul/well of each test condition (total volume was 600 ul/well) was added (test conditions were prepared in 25 mM HEPES solution). Control conditions were prepared consisting of neat 25 mM HEPES and an mRNA control. Between addition of each test condition the plate was shaken back and forth to ensure mixing. The plate was placed into the incubator overnight.
Staining and fixation for both human and mouse-derived macrophages was carried out as follows. After 24 hrs the media overlaying each test condition was transferred to corresponding 1.5 ml Eppendorf tubes (in order to conserve cells that may have died during transfection). Cells were then washed with 300 ul/well PBS which was transferred to the corresponding tubes. 500 ul/well 5 mM EDTA was added to each well and the plate(s) transferred to the 37° C. incubator for 5-10 minutes until the cells started to detach. Cells were then transferred from the plate to the corresponding 1.5 ml tubes. Cells were pelleted down at 300 g for 5 minutes and resuspended in 100 ul/sample fixable Live/Dead Aqua stain. ArC beads were stained with 3 ul neat Live/Dead Aqua for compensation. These cells were stained on ice for 30 minutes. Following this, the tubes were spun down at 300 g for 5 minutes. The supernatant was discarded, and the cells were resuspended in 500 ul/sample PBS. Negative ArC beads were added to the compensation control. GFP compensation beads were dispensed into separate tube as the GFP compensation control. The samples were spun down at 300 g for 5 minutes. Samples were then resuspended in 100 ul/sample of Reagent A from the Invitrogen Fix/Perm kit and left at room temperature for 15 minutes. The samples were spun down at 400 g for 5 minutes and the supernatant was disposed. The samples were once again washed with PBS and spun down at 300 g for 5 minutes. The cells were finally resuspended in 400 ul/sample FACS buffer (PBS+2 mM EDTA+0.5% w/v BSA) for flow analysis. Samples were stored in the fridge prior to flow analysis and run within 24 hrs of fixation.
12 μl of a nanoparticle formulation was aliquoted into a sterile 0.5 ml polypropylene tube. 4 μl of a 0.3 mg/ml, 0.6 mg/ml or 1.8 mg/ml solution of (Ac-EEEE)2[…][(S-S)-α-D-Thiomannose] (for a mRNA:coating mass ratio of 1:0.5, 1:1 or 1:3, respectively) was mixed by rapidly pipetting up and down 10-15 times, and allowed to incubate for 5 minutes.
Macrophages, and in particular M2-phenotype macrophages, are known to have enriched surface expression of the receptor CD206, the ligand for which is mannose.

## (RHL)4(KRHL)2KGSC-NH2 [GSCG1,2-RHL]
Human THP-1 cells
  increase of transfection efficiency at NP=0.6:1 compared to NP=5:1: approximately 10%
Mouse macrophages; NP=0.6:1, lipid:mRNA w/w 10:1, coat 3:1 (3 eq) coating:mRNA, FIG. 7
  transfection efficiency with mannose-conjugated dendrimer coat versus uncoated: further increase the transfection efficiency
Mouse macrophages; NP=0.6:1, lipid:mRNA w/w 10:1, uncoated, FIG. 7
  transfection efficiency: > 70%
Mouse macrophages; NP=8:1, DOTMA/DOPE:mRNA w/w 10:1, uncoated, FIG. 6
  transfection rate: ~60%
Mouse macrophages; NP=8:1, lipid:mRNA w/w 2.5:1, coated with (Ac-EEEE)2KGSGGSGGSC[(S-S)-α-D-Thiomannose] at 1:1 (1 eq) coating:mRNA, FIG. 4
  transfection efficiency: ~25%
Mouse macrophages; NP=8:1, lipid:mRNA w/w 2.5:1, uncoated, FIG. 4
  transfection efficiency: 2-3%
Mouse macrophages; NP=8:1, lipid:mRNA w/w 5:1, dendrimer-mannose coat 0.5:1 (0.5 eq) coating:mRNA, FIG. 5
  transfection efficiency: ~75%
Mouse macrophages; NP=8:1, lipid:mRNA w/w 5:1, uncoated, lipid-only nanoparticles as comparator, FIG. 5
  transfection efficiency: ~60%
